Results from ChEMBL document CHEMBL4414679, “Discovery of 4,6-pyrimidinediamine derivatives as novel dual EGFR/FGFR inhibitors aimed EGFR/FGFR1-positive NSCLC” (Eur J Med Chem, 2020).
Activity calls are given as the source filed them. No cut-off for these calls is given here.

Key:
[1] = biological target: T1, Epidermal growth factor receptor (Homo sapiens, UniProt P00533); assay: Inhibition of N-terminal GST-tagged human EGFR cytoplasmic domain (669-1210 AA) expressed in baculovirus at 10 uM using FAM-labelled peptide as substrate pre-incubated for 10 mins followed by substrate addition by mobility shift assay relative to control
T1 sequence (P00533 whole entry, the tested form may be a part): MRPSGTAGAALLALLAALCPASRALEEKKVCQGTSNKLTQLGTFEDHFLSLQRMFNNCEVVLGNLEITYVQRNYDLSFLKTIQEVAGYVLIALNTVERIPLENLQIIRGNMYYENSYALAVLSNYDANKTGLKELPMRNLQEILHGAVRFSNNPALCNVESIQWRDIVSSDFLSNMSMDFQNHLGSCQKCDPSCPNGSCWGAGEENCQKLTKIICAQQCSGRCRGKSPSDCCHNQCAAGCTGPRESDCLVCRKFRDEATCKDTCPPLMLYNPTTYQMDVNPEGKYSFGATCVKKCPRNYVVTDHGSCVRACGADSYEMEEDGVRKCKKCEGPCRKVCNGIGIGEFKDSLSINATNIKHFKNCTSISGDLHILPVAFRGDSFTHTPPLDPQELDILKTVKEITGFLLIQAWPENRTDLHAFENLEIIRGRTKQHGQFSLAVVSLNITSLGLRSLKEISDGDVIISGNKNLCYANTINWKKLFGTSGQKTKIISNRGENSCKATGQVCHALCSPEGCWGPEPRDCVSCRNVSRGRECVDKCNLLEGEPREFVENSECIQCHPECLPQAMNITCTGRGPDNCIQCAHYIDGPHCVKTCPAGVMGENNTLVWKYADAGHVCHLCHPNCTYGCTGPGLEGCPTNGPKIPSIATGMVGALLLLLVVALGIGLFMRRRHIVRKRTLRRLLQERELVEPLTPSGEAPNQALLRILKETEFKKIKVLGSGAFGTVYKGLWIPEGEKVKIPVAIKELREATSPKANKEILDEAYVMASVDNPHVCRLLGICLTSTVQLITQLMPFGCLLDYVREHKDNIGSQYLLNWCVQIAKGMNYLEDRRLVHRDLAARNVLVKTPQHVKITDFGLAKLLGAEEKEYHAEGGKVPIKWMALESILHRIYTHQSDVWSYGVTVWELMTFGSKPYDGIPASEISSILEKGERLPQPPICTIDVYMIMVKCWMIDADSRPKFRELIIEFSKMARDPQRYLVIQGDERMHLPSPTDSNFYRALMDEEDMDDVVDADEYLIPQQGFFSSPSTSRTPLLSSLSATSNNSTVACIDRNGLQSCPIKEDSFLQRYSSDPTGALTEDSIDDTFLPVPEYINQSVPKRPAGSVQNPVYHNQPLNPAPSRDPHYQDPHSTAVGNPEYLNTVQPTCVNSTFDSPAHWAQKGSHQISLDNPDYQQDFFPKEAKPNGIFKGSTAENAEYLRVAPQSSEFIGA

[2] = biological target: T1, Epidermal growth factor receptor; assay: Inhibition of N-terminal GST-tagged human EGFR (d746-750AA) expressed in baculovirus at 10 uM using FAM-labelled peptide as substrate pre-incubated for 10 mins followed by substrate addition by mobility shift assay relative to control
[3] = biological target: T1, Epidermal growth factor receptor; assay: Inhibition of N-terminal GST-tagged human EGFR (d746-750AA) expressed in baculovirus using FAM-labelled peptide as substrate pre-incubated for 10 mins followed by substrate addition by mobility shift assay
NCI-H226 [4] = assay: Induction of apoptosis in human NCI-H226 cells assessed as viable cells at 1 uM measured after 24 hrs by Annexin-V/propidium iodide staining-based flow cytometric analysis (reference value: 93.4%); format: functional; settings: NCI-H226, 24 h, read-out: Activity
NCI-H226 [5] = assay: Induction of apoptosis in human NCI-H226 cells assessed as early apoptotic cells at 10 uM measured after 24 hrs by Annexin-V/propidium iodide staining-based flow cytometric analysis (reference value: 0.8%); format: functional
[6] = Induction of apoptosis in gefitinib-insensitive human HCC827GR cells assessed as viable cells at 1 uM measured after 24 hrs by Annexin-V/propidium iodide staining-based flow cytometric analysis (reference value: 90.8%); format: functional; settings: read-out: Activity
[7] = biological target: Fibroblast growth factor receptor 1 (Homo sapiens, UniProt P11362); assay: Inhibition of FGFR1 in gefitinib-insensitive human HCC827GR cells assessed as reduction in FGF-induced FGFR1 phosphorylation upto 10 uM measured after 2 hrs by western blot analysis
Sequence of Fibroblast growth factor receptor 1 (P11362 22-822 limits assumed): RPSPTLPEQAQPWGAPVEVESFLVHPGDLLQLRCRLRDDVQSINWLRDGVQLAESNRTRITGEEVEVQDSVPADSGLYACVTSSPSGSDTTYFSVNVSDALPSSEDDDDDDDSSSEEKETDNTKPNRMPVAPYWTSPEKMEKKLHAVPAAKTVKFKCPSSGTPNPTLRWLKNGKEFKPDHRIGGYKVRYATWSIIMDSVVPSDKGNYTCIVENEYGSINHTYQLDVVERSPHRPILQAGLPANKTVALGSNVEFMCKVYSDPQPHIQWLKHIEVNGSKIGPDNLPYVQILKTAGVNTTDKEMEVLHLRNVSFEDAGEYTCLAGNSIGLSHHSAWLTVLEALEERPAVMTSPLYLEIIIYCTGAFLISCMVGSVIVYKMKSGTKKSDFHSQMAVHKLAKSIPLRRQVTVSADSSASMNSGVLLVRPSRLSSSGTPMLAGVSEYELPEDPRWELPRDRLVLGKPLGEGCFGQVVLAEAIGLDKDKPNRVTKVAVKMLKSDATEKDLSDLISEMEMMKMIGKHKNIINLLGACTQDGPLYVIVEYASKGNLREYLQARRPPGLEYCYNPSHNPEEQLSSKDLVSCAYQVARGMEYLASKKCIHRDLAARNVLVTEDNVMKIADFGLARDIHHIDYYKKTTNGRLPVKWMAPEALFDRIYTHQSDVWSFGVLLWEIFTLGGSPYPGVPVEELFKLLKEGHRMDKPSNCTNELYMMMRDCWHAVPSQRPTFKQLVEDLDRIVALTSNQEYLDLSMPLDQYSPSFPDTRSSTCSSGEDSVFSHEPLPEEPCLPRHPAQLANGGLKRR

[8] = Toxicity in BALB/c nude mouse xenografted with human HCC827GR cells assessed as body weight at 15 mg/kg, ip dosed measured every 2 days upto 24 days; format: organism-based; settings: in vivo
[9] = Induction of apoptosis in gefitinib-insensitive human HCC827GR cells assessed as early apoptotic cells at 10 uM measured after 24 hrs by Annexin-V/propidium iodide staining-based flow cytometric analysis (reference value: 1.9%); format: functional
[10] = biological target: T1, Epidermal growth factor receptor; assay: Inhibition of EGFR in gefitinib-insensitive human HCC827GR cells assessed as reduction in EGF-induced Akt phosphorylation upto 10 uM measured after 2 hrs by western blot analysis
[11] = MRT in Sprague-Dawley rat at 30 mg/kg, po measured upto 24 hrs by UPLC-MS/MS; format: ADME, organism-based; settings: in vivo
[12] = biological target: Cyclin-dependent kinase 1/cyclin B1 (Homo sapiens) (UniProt P06493+P14635); assay: Inhibition of CDC2/cyclinB1 (unknown origin) at 10 uM using FAM-labelled peptide as substrate pre-incubated for 10 mins followed by substrate addition by mobility shift assay relative to control; format: protein-complex assay
Sequence of Cyclin-dependent kinase 1/cyclin B1 (Homo sapiens) (P06493 whole entry, looked up): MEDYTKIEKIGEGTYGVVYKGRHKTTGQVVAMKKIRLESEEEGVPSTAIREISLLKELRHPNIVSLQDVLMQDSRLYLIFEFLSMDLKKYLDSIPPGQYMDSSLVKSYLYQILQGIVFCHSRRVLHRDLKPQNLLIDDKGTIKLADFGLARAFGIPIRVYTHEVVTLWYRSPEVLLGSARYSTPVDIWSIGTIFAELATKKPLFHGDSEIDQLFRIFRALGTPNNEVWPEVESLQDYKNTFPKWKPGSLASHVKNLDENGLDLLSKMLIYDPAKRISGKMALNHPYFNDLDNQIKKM
Sequence of Cyclin-dependent kinase 1/cyclin B1 (Homo sapiens) (P14635 whole entry, looked up): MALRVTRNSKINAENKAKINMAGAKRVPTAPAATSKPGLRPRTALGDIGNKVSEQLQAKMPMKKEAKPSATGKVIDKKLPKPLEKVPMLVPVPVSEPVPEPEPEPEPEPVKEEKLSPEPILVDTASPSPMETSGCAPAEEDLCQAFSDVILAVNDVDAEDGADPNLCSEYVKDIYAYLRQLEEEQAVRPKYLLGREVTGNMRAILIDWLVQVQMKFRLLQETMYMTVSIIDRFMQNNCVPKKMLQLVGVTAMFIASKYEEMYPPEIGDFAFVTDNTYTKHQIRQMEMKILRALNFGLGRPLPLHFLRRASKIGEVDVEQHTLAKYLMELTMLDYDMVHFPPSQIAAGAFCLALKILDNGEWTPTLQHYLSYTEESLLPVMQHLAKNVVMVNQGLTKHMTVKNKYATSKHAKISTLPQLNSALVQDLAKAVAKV

[13] = biological target: Mitogen-activated protein kinase 9 (Homo sapiens) (UniProt P45984); assay: Inhibition of human recombinant full length His-tagged JNK2 expressed in baculovirus expression system at 10 uM using FAM-labelled peptide as substrate pre-incubated for 10 mins followed by substrate addition by mobility shift assay relative to control
Sequence of Mitogen-activated protein kinase 9 (Homo sapiens) (P45984 whole entry, looked up): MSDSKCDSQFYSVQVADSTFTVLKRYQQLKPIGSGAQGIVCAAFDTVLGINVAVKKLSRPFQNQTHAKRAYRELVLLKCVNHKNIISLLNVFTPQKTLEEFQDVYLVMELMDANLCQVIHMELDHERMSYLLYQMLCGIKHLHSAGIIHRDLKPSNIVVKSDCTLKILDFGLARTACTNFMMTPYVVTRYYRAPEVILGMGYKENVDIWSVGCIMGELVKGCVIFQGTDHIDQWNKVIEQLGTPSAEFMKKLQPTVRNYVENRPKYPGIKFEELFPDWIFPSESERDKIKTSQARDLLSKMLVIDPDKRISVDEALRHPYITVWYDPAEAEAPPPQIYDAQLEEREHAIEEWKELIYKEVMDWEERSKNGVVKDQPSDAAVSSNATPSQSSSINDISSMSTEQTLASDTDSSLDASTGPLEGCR

COc1ccc(OC)c(Nc2cc(NC(=O)Nc3c(Cl)cccc3Cl)ncn2)c1
inhibition [1]: 92.7% | inhibition [2]: 95.8% | IC50 [3]: 73 nM | viability at 1 µM (NCI-H226 [4]): 87.7% | Activity (NCI-H226 [5]): 4.4% | viability at 1 µM [6]: 79.5% | inhibition [7]: Active | Activity [8]: Non-Toxic | Activity [9]: 13% | inhibition [10]: Active | MRT [11]: 6.73 h | inhibition [12]: -9.78% | inhibition [13]: 0.85%
